Results: ChEMBL document CHEMBL4507326, “Data for DCP probe TP-030-2” (2021)

Assays:
[1] = molecular target: Alpha-1B adrenergic receptor (Homo sapiens) (UniProt P35368); conditions: Compound concentration 10.0 uM
[2] = molecular target: D(3) dopamine receptor (Homo sapiens) (UniProt P35462); conditions: Compound concentration 10.0 uM
[3] = molecular target: Calcium/calmodulin-dependent protein kinase type 1B (Homo sapiens, UniProt Q6P2M8); assay: CaMK1beta(PNCKLGRI) Takeda global kinase panel
[4] = molecular target: Casein kinase I isoform alpha (Homo sapiens, UniProt P48729); assay: CK1alpha(C1A1PHY1) Takeda global kinase panel
[5] = molecular target: Inhibitor of nuclear factor kappa-B kinase subunit epsilon (Homo sapiens, UniProt Q14164); assay: IKKepsilon(IKBELGY1) Takeda global kinase panel
[6] = molecular target: ATP-sensitive inward rectifier potassium channel 11 (Cricetulus griseus) (UniProt A0A3L7HHE1); assay: Inhibition of Potassium Channel [KATP] at 10 µM in the Eurofins-Panlabs radioligand binding assay (Eurofins_assay_265600); conditions: Cricetinae; Compound concentration 10.0 uM
[7] = molecular target: Casein kinase I isoform gamma-2 (Homo sapiens, UniProt P78368); assay: CK1gamma2(C1G2LGI1) Takeda global kinase panel
[8] = molecular target: Sodium-dependent serotonin transporter (Homo sapiens) (UniProt P31645); conditions: Compound concentration 10.0 uM
TGF-beta receptor type-1 = TGF-beta receptor type-1 (Homo sapiens, UniProt P36897); assay: TGFbetaR1(TGF1LGF1) Takeda global kinase panel
Ephrin type-A receptor 8 = Ephrin type-A receptor 8 (Homo sapiens, UniProt P29322); assay: EphA8(EPA8LGF1) Takeda global kinase panel
[9] = molecular target: Tyrosine-protein kinase Fer (Homo sapiens, UniProt P16591); assay: Fer(FER1LGY1) Takeda global kinase panel
[10] = molecular target: Uncharacterized serine/threonine-protein kinase SBK3 (Homo sapiens, UniProt P0C264); assay: SgK110(SG10LGF1) Takeda global kinase panel
[11] = molecular target: D(2) dopamine receptor (Homo sapiens) (UniProt P14416); conditions: Compound concentration 10.0 uM
[12] = molecular target: Dual specificity tyrosine-phosphorylation-regulated kinase 4 (Homo sapiens, UniProt Q9NR20); assay: DYRK4(DYR4LHY1) Takeda global kinase panel
[13] = molecular target: Myosin light chain kinase (Homo sapiens, UniProt Q32MK0); assay: caMLCK(MYL3LGF1) Takeda global kinase panel
[14] = molecular target: Casein kinase I isoform alpha-like (Homo sapiens, UniProt Q8N752); assay: CK1alpha2(C1ALLGI5) Takeda global kinase panel
[15] = molecular target: Cyclin-dependent kinase 6 (Homo sapiens, UniProt Q00534); assay: CDK6(CDK6CGS1) Takeda global kinase panel
[16] = molecular target: Microtubule-associated serine/threonine-protein kinase 3 (Homo sapiens, UniProt O60307); assay: MAST3(MAS3LGE1) Takeda global kinase panel
[17] = molecular target: 5-hydroxytryptamine receptor 2A (Homo sapiens, UniProt P28223); assay: GPCRScan assay: inhibition of 5-HT2A; design: radioligand conc. used [nm] 1.2 – 2.4, parental cells HEKT
[18] = molecular target: Leukocyte tyrosine kinase receptor (Homo sapiens, UniProt P29376); assay: LTK(LTK1LGF1) Takeda global kinase panel
[19] = molecular target: Serine/threonine-protein kinase VRK2 (Homo sapiens, UniProt Q86Y07); assay: VRK2(VRK2LGRI) Takeda global kinase panel
[20] = molecular target: 3-phosphoinositide-dependent protein kinase 1 (Homo sapiens, UniProt O15530); assay: PDK1(PDP1LGA1) Takeda global kinase panel
[21] = molecular target: Serine/threonine-protein kinase 4 (Homo sapiens, UniProt Q13043); assay: MST1(STK4LGF1) Takeda global kinase panel
Rattus norvegicus = organism: Rattus norvegicus; assay: Inhibition of Thyroid Hormone at 10 µM in the Eurofins-Panlabs radioligand binding assay (Eurofins_assay_285900); type: protein assay; conditions: Compound concentration 10.0 uM
Myotonin-protein kinase = Myotonin-protein kinase (Homo sapiens, UniProt Q09013); assay: DMPK(DMPKLGF1) Takeda global kinase panel
[22] = molecular target: Ribosomal protein S6 kinase alpha-5 (Homo sapiens, UniProt O75582); assay: MSK1(R6A5LGY1) Takeda global kinase panel
[23] = molecular target: Gamma-aminobutyric acid type B receptor subunit 1 (Homo sapiens) (UniProt Q9UBS5); assay: Inhibition of GABAB1A at compound concentration of 10.0 uM in the Eurofins-Panlabs radioligand binding assay (Eurofins_assay_228610); design: ligand concentration 4 nM; conditions: Compound concentration 10.0 uM
[24] = molecular target: Fibroblast growth factor receptor 3 (Homo sapiens, UniProt P22607); assay: FGFR3(FGF3LGF1) Takeda global kinase panel
[25] = molecular target: Sigma non-opioid intracellular receptor 1 (Homo sapiens) (UniProt Q99720); assay: Sigma 1 Eurofins-Panlabs radioligand binding assay; design: ligand concentration 15 nM; conditions: Compound concentration 10.0 uM
[26] = molecular target: Mitogen-activated protein kinase 9 (Homo sapiens, UniProt P45984); assay: JNK2(MAP9LGF1) Takeda global kinase panel
[27] = molecular target: Bone morphogenetic protein receptor type-1B (Homo sapiens, UniProt O00238); assay: BMPR1B(BM1BLGF1) Takeda global kinase panel
[28] = molecular target: Alpha-1B adrenergic receptor (Homo sapiens) (UniProt P35368); assay: Adrenergic alpha1B Eurofins-Panlabs radioligand binding assay; design: ligand concentration 0.2 nM; conditions: Compound concentration 10.0 uM
[29] = molecular target: Histamine H2 receptor (Homo sapiens) (UniProt P25021); conditions: Compound concentration 10.0 uM
[30] = molecular target: Prostaglandin E2 receptor EP4 subtype (Homo sapiens) (UniProt P35408); assay: Inhibition of Prostanoid EP4 at 10 µM in the Eurofins-Panlabs radioligand binding assay (Eurofins_assay_268420); design: ligand concentration 1 nM; conditions: Compound concentration 10.0 uM
[31] = molecular target: Serine/threonine-protein kinase H1 (Homo sapiens, UniProt P11801); assay: PSKH1(PSH1LGRH) Takeda global kinase panel
[32] = molecular target: Tyrosine-protein kinase JAK3 (Homo sapiens, UniProt P52333); assay: JAK3(JAK3LGRG) Takeda global kinase panel
[33] = molecular target: Fibroblast growth factor receptor 4 (Homo sapiens, UniProt P22455); assay: FGFR4(FGF4LGF1) Takeda global kinase panel
[34] = molecular target: Serine/threonine-protein kinase LATS2 (Homo sapiens, UniProt Q9NRM7); assay: LATS2(LAT2LGY1) Takeda global kinase panel
[35] = molecular target: Serine/threonine-protein kinase MARK2 (Homo sapiens, UniProt Q7KZI7); assay: MARK2(MAR2LGY1) Takeda global kinase panel
[36] = molecular target: Mitotic checkpoint serine/threonine-protein kinase BUB1 (Homo sapiens, UniProt O43683); assay: Bub1(BUB1LGRL) Takeda global kinase panel
[37] = molecular target: Dual specificity tyrosine-phosphorylation-regulated kinase 1B (Homo sapiens, UniProt Q9Y463); assay: DYRK1B(DY1BLHY1) Takeda global kinase panel
[38] = molecular target: Tyrosine-protein kinase ITK/TSK (Homo sapiens, UniProt Q08881); assay: ITK(ITK1CGF1) Takeda global kinase panel
[39] = molecular target: Alpha-1D adrenergic receptor (Homo sapiens) (UniProt P25100); conditions: Compound concentration 10.0 uM
[40] = molecular target: Serine/threonine-protein kinase Nek5 (Homo sapiens, UniProt Q6P3R8); assay: Nek5(NEK5LGRD) Takeda global kinase panel

Chain of 5-hydroxytryptamine receptor 2A (P28223 whole entry): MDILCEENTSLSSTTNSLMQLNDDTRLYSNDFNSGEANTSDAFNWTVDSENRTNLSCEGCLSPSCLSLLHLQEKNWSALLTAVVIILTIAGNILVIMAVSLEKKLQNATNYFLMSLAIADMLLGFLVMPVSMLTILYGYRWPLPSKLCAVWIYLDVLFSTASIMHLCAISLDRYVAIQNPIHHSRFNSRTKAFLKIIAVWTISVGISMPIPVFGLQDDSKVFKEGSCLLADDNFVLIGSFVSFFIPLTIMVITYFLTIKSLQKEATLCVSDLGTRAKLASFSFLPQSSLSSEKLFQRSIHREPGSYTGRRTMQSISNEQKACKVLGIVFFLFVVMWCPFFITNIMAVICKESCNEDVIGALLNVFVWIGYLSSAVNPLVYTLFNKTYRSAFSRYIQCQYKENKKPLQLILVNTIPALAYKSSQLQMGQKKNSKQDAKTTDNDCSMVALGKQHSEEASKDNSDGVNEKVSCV
Chain of Alpha-1B adrenergic receptor (Homo sapiens) (P35368 whole entry): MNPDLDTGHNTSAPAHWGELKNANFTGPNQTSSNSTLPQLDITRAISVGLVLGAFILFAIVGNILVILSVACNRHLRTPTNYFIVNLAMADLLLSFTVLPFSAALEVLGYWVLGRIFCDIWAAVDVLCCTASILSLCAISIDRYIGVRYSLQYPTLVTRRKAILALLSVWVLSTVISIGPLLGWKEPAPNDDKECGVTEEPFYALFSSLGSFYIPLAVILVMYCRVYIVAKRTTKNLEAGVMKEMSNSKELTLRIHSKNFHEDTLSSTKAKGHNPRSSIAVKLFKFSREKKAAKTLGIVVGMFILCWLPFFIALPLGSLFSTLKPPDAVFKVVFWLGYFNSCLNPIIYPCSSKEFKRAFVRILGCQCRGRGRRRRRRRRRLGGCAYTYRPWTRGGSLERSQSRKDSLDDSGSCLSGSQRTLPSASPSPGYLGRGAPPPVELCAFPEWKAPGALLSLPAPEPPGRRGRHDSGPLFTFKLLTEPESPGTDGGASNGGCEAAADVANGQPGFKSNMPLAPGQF
Chain of Serine/threonine-protein kinase LATS2 (Q9NRM7 whole entry): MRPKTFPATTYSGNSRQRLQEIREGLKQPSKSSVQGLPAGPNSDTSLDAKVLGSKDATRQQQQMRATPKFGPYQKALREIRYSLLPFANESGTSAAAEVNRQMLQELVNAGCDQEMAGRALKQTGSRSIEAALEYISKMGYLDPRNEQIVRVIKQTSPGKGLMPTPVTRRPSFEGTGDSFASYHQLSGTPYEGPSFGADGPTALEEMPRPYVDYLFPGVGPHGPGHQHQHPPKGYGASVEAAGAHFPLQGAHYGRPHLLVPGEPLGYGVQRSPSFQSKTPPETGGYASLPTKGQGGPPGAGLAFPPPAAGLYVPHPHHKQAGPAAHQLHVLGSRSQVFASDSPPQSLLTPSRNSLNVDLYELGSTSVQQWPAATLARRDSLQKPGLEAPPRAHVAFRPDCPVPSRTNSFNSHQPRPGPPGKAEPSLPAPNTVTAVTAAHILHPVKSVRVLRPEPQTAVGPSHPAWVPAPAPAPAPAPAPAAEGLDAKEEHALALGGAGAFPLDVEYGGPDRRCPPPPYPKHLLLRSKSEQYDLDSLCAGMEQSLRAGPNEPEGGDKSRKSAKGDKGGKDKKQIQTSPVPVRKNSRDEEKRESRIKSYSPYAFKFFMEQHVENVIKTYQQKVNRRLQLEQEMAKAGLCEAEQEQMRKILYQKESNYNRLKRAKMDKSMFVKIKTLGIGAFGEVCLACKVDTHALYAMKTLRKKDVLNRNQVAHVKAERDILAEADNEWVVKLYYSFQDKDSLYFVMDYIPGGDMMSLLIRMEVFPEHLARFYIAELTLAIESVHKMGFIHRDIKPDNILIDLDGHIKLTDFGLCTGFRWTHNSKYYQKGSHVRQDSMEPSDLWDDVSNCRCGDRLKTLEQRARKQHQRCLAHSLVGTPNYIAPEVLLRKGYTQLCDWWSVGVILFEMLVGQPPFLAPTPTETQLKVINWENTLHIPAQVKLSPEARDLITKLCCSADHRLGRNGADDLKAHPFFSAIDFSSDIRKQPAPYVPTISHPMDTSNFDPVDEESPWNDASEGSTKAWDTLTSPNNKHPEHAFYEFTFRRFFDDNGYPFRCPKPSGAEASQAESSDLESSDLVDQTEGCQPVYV
Chain of 3-phosphoinositide-dependent protein kinase 1 (O15530 whole entry): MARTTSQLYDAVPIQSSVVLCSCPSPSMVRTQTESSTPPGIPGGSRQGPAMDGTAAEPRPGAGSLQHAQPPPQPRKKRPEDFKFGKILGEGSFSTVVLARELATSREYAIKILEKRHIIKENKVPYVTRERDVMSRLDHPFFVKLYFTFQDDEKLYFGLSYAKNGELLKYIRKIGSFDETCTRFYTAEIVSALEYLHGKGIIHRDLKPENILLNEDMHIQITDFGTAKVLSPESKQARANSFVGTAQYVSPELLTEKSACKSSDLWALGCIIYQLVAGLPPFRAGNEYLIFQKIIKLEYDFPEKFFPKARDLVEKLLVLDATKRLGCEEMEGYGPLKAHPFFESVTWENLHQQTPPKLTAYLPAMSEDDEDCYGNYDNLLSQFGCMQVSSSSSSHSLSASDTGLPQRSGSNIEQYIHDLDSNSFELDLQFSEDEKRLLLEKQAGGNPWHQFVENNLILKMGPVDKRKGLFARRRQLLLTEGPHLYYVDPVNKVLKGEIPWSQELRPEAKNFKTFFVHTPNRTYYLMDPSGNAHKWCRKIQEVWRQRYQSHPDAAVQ
Chain of Serine/threonine-protein kinase 4 (Q13043 whole entry): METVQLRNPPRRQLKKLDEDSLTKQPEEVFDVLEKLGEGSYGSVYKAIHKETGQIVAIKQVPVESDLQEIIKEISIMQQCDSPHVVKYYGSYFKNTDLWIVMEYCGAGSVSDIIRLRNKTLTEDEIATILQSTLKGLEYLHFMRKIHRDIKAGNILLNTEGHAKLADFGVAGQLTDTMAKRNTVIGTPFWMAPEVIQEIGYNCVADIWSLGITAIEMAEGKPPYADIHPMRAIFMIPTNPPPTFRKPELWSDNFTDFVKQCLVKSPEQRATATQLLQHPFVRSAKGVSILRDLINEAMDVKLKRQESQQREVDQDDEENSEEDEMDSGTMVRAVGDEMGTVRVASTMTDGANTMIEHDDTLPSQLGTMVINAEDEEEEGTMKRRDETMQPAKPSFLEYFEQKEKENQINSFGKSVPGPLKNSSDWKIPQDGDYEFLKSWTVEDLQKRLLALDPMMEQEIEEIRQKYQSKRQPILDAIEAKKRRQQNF
Chain of Calcium/calmodulin-dependent protein kinase type 1B (Q6P2M8 whole entry, canonical isoform): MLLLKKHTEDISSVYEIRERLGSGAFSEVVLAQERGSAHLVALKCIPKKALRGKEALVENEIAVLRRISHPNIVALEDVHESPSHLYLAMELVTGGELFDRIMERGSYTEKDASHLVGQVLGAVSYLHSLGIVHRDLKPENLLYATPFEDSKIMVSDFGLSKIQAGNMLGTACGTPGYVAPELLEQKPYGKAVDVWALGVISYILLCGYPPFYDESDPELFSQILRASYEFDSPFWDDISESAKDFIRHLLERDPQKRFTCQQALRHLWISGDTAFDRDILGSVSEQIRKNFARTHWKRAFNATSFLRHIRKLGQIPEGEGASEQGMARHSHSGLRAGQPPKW
Chain of Myotonin-protein kinase (Q09013 whole entry): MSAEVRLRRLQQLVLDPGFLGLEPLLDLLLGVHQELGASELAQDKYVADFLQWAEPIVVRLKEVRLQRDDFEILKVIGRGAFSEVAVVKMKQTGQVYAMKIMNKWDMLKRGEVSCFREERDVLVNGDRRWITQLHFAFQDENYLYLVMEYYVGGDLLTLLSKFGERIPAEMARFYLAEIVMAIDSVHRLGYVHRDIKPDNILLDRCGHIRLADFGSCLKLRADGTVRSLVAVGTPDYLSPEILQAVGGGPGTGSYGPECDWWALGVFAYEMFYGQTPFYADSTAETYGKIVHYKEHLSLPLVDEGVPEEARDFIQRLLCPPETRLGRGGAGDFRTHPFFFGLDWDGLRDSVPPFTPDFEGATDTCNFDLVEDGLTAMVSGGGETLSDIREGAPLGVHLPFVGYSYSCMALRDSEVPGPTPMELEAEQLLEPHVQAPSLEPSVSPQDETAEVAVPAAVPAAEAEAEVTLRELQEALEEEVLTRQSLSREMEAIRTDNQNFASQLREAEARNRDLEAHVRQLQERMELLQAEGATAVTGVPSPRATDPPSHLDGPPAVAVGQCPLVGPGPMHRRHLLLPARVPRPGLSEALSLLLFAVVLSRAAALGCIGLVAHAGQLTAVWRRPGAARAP
Chain of Sigma non-opioid intracellular receptor 1 (Homo sapiens) (Q99720 whole entry): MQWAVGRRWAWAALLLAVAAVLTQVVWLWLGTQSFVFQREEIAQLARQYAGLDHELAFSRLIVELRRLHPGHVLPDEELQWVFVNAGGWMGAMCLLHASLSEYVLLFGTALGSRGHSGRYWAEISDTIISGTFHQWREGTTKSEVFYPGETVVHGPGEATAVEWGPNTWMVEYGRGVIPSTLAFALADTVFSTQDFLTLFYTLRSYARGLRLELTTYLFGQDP
Chain of Sodium-dependent serotonin transporter (Homo sapiens) (P31645 whole entry, looked up): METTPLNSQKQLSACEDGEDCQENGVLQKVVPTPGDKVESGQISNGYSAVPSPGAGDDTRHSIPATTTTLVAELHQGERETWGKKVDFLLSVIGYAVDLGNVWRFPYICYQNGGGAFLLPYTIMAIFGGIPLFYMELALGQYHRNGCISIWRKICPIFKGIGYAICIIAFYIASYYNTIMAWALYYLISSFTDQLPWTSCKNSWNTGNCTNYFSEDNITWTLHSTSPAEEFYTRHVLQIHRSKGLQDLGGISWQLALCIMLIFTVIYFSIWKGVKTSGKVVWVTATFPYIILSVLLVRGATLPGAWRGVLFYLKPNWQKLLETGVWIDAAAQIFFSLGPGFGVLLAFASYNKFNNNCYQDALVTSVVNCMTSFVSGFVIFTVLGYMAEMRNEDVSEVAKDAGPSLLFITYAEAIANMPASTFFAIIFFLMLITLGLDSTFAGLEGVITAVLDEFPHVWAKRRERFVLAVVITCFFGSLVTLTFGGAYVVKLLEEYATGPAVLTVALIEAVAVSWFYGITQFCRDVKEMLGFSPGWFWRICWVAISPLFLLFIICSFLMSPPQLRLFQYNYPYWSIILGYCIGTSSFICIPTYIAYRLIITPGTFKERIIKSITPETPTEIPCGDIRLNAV

Molecule `CN1C(=O)[C@@H](N2CCc3c(nn(Cc4ccccc4)c3Br)C2=O)COc2ccccc21` [TP-030-2] has an inhibition [1] of -0.19%, an inhibition [2] of 14% and an IC50 [3] of 1000 nM. The IC50 [4] was 1000 nM, the IC50 [5] was 1000 nM and the inhibition [6] was 14%. It also gave an IC50 [7] of 1000 nM, an inhibition [8] of 5% and an IC50 (TGF-beta receptor type-1) of 1000 nM. The IC50 (Ephrin type-A receptor 8) was 1000 nM, the IC50 [9] was 1000 nM and the IC50 [10] was 1000 nM. The inhibition [11] was 3%, the IC50 [12] was 1000 nM and the IC50 [13] was 1000 nM. The IC50 [14] was 1000 nM, the IC50 [15] was 1000 nM and the IC50 [16] was 1000 nM. The Ki ([17]; read-out: Ki) was 2070 nM, the Ki ([17]; read-out: pKi (converted)) was 2040 nM and the IC50 [18] was 1000 nM. It also gave an IC50 [19] of 1000 nM, an IC50 [20] of 1000 nM and an IC50 [21] of 1000 nM. The inhibition (Rattus norvegicus) was 4%, the IC50 (Myotonin-protein kinase) was 1000 nM and the IC50 [22] was 1000 nM. The inhibition [23] was 1%, the IC50 [24] was 1000 nM and the inhibition [25] was 13%. For the same molecule, the IC50 [26] was 1000 nM, the IC50 [27] was 1000 nM and the inhibition [28] was -2%. It also gave an inhibition [29] of 0.52%, an inhibition [30] of -2% and an IC50 [31] of 1000 nM. The IC50 [32] was 1000 nM, the IC50 [33] was 1000 nM and the IC50 [34] was 1000 nM. For the same molecule, the IC50 [35] was 1000 nM, the IC50 [36] was 1000 nM and the IC50 [37] was 1000 nM. For the same molecule, the IC50 [38] was 1000 nM, the inhibition [39] was 5.52% and the IC50 [40] was 1000 nM.
